One assay deals with VCaP cells. As to the kind of experiment: VCaP growth inhibition assay. In kind it is cell-based. The following applies: 30 pM R1881, 9 days, CTG. An outline of the steps:
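VCaP cells in phenol red-free DMEM/5% CSS, pre-incubated 72 h, then stimulated with R1881 (final 30 pM) and treated with 1:5 serial dilutions (final 100 nM to 10 fM) for 9 days at 37 °C. Viability by CellTiter-Glo luminescence; IC50 from 4-parameter logistic fit of RLU vs concentration.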

The subject of the next assay is AR / CBP ternary complex. As to the kind of experiment: Ternary complex formation assay (sandwich ELISA, AR capture / CBP detection) in VCaP cell lysates. The format is cell-based. The note with it: 1.5 hours treatment, sandwich ELISA (AR capture, CBP or p300 detection). An outline of the steps:
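VCaP cells (50K/well, 5% charcoal-stripped FBS, ≥3 days) treated with bifunctional compound for 1.5 h, then lysed 30 min at 4 °C. AR captured on anti-AR (AR 441) plates; bound CBP or p300 detected by rabbit mAb plus HRP secondary. QuantaRed chemifluorescence read at ex 570/em 585, immediately and at 5 and 15 min.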

As usually defined, the IC50 is the midpoint of a concentration-inhibition curve. Read a low IC50 as greater potency in that assay. As a reminder, the EC50 is the concentration at which the effect is half-maximal. A lower EC50 goes with a more potent agent. In turn, `CC(=O)N1CCc2c(c(N3CCCc4cc(-c5cnn(C)c5)c(C)cc43)nn2C2CCN(C3CCC4(CC3)CN(c3ncc(C(=O)NC5C(C)(C)C(Oc6ccc(C#N)c(Cl)c6)C5(C)C)cn3)C4)CC2)C1` (stereo not shown) [Compound 468, 2-[7-[4-[5-acetyl-3-[7-methyl-6-(1-methylpyrazol-4-yl)-3,4-dihydro-2H-quinolin-1-yl]-6,7-dihydro-4H-pyrazolo[4,3-c]pyridin-1-yl]-1-piperidyl]-2-azaspiro[3.5]nonan-2-yl]-N-[3-(3-chloro-4-cyano-phenoxy)-2,2,4,4-tetramethyl-cyclobutyl]pyrimidine-5-carboxamide] displayed an IC50 with VCaP cells of 0.1 to 1 nM. In addition, the EC50 in the assay with AR / CBP ternary complex was under 1 nM.

Molecule `COc1cc(OC2C(C)(C)C(NC(=O)c3ccc(OC4CC5(CCC(N6CCC(n7nc(N8CCCc9cc(-c%10cnn(C)c%10)c(C(F)F)cc98)c8c7CCN(C(C)=O)C8)CC6)CC5)C4)cc3)C2(C)C)ccc1C#N` (stereo not shown) [Compound 384, 4-[7-[4-[5-acetyl-3-[7-(difluoromethyl)-6-(1-methylpyrazol-4-yl)-3,4-dihydro-2H-quinolin-1-yl]-6,7-dihydro-4H-pyrazolo[4,3-c]pyridin-1-yl]-1-piperidyl]spiro[3.5]nonan-2-yl] oxy-N-[3-(4-cyano-3-methoxy-phenoxy)-2,2,4,4-tetramethyl-cyclobutyl]benzamide] registered an IC50 in the assay on VCaP cells of at most 0.1 nM. Moreover, in the assay on AR / CBP ternary complex, the EC50 is under 1 nM.

In turn, `COc1cc(OC2C(C)(C)C(NC(=O)c3ccc(N4CC(N5CCC(n6nc(N7CCCc8cc(-c9cnn(C)c9)c(C(F)F)cc87)c7c6CCN(C(C)=O)C7)CC5)C4)cc3)C2(C)C)ccc1C#N` (stereo not shown) [Compound 310, 4-[3-[4-[5-acetyl-3-[7-(difluoromethyl)-6-(1-methylpyrazol-4-yl)-3,4-dihydro-2H-quinolin-1-yl]-6,7-dihydro-4H-pyrazolo[4,3-c]pyridin-1-yl]-1-piperidyl]azetidin-1-yl]-N-[3-(4-cyano-3-methoxy-phenoxy)-2,2,4,4-tetramethyl-cyclobutyl]benzamide] displayed an IC50 with VCaP cells of at most 0.1 nM. The same molecule registered an EC50 with AR / CBP ternary complex of under 1 nM.

Molecule `CC(=O)N1CCc2c(c(N3CCCc4cc(C#N)ccc43)nn2C2CC3(C2)CN(C(=O)C2CC4(C2)CN(c2ncc(C(=O)NC5C(C)(C)C(Oc6ccc(C#N)c(Cl)c6)C5(C)C)cn2)C4)C3)C1` (stereo not shown) [Compound 220, 2-[6-[6-[5-acetyl-3-(6-cyano-3,4-dihydro-2H-quinolin-1-yl)-6,7-dihydro-4H-pyrazolo[4,3-c]pyridin-1-yl]-2-azaspiro[3.3]heptane-2-carbonyl]-2-azaspiro[3.3]heptan-2-yl]-N-[3-(3-chloro-4-cyano-phenoxy)-2,2,4,4-tetramethyl-cyclobutyl]pyrimidine-5-carboxamide] yielded an IC50 with VCaP cells of 1 to 100 nM. The EC50 in the assay with AR / CBP ternary complex is under 1 nM.

Consider `COc1cc(OC2C(C)(C)C(NC(=O)c3ccc(N4CC(OC5CCC(n6nc(N7CCCc8cc(-c9cnn(C)c9)c(C(F)F)cc87)c7c6CCN(C(C)=O)C7)CC5)C4)cc3)C2(C)C)ccc1C#N` (stereo not shown) [Compound 343, 4-[3-[4-[5-acetyl-3-[7-(difluoromethyl)-6-(1-methylpyrazol-4-yl)-3,4-dihydro-2H-quinolin-1-yl]-6,7-dihydro-4H-pyrazolo[4,3-c]pyridin-1-yl]cyclohexoxy]azetidin-1-yl]-N-[3-(4-cyano-3-methoxy-phenoxy)-2,2,4,4-tetramethyl-cyclobutyl]benzamide], for which, in the assay with VCaP cells, the IC50 was in the range of 0.1 to 1 nM. The same molecule returned an EC50 in the assay on AR / CBP ternary complex of under 1 nM.

`CC(=O)N1CCc2c(c(-c3cccc4cc(-c5ccc(CC6CC7(C6)CN(c6ncc(C(=O)NC8C(C)(C)C(Oc9ccc(C#N)c(Cl)c9)C8(C)C)cn6)C7)nc5)ncc34)nn2C)C1` (stereo not shown) [Compound 230, 2-[6-[[5-[8-(5-acetyl-1-methyl-6,7-dihydro-4H-pyrazolo[4,3-c]pyridin-3-yl)-3-isoquinolyl]-2-pyridyl]methyl]-2-azaspiro[3.3]heptan-2-yl]-N-[3-(3-chloro-4-cyano-phenoxy)-2,2,4,4-tetramethyl-cyclobutyl]pyrimidine-5-carboxamide] displayed an IC50 in the assay with VCaP cells of 0.1 to 1 nM. The molecule further returned an EC50 in the assay with AR / CBP ternary complex of 10 to 100 nM.

As for `Cn1cc(-c2cc3cccc(-c4cc(C5=CCN(CC6CCN(c7ncc(C(=O)NC8C(C)(C)C(Oc9ccc(C#N)c(Cl)c9)C8(C)C)cn7)CC6)CC5)c5c(c4)n(C)c(=O)n5C)c3cn2)cn1` (stereo not shown) [Compound 243, N-[3-(3-chloro-4-cyano-phenoxy)-2,2,4,4-tetramethyl-cyclobutyl]-2-[4-[[4-[1,3-dimethyl-6-[3-(1-methylpyrazol-4-yl)-8-isoquinolyl]-2-oxo-benzimidazol-4-yl]-3,6-dihydro-2H-pyridin-1-yl]methyl]-1-piperidyl]pyrimidine-5-carboxamide], the IC50 in the assay on VCaP cells was in the range of 0.1 to 1 nM. This molecule also had an EC50 in the assay with AR / CBP ternary complex of over 100 nM.

`COc1cc(OC2C(C)(C)C(NC(=O)c3ccc(N4CCC(C(=O)N5CCC(n6nc(-c7cccc8cc(C9CC9)c(C(F)F)cc78)c7c6CCN(C(C)=O)C7)CC5)CC4)cc3)C2(C)C)ccc1C#N` (stereo not shown) [Compound 257, 4-[4-[4-[5-acetyl-3-[6-cyclopropyl-7-(difluoromethyl)-1-naphthyl]-6,7-dihydro-4H-pyrazolo[4,3-c]pyridin-1-yl]piperidine-1-carbonyl]-1-piperidyl]-N-[3-(4-cyano-3-methoxy-phenoxy)-2,2,4,4-tetramethyl-cyclobutyl]benzamide] gave an IC50 with VCaP cells of 0.1 to 1 nM. The molecule further had an EC50 in the assay with AR / CBP ternary complex of under 1 nM.

In the assay on VCaP cells, `CC(=O)N1CCc2c(c(N3CCCc4cc(-c5cnn(C)c5)ccc43)nn2C2CCN(CC3CCN(c4ncc(C(=O)NC5C(C)(C)C(Oc6ccc(C#N)c(Cl)c6)C5(C)C)cn4)CC3)CC2)C1` (stereo not shown) [Compound 24, 2-[4-[[4-[5-acetyl-3-[6-(1-methylpyrazol-4-yl)-3,4-dihydro-2H-quinolin-1-yl]-6,7-dihydro-4H-pyrazolo[4,3-c]pyridin-1-yl]-1-piperidyl]methyl]-1-piperidyl]-N-[3-(3-chloro-4-cyano-phenoxy)-2,2,4,4-tetramethyl-cyclobutyl]pyrimidine-5-carboxamide] showed an IC50 of 0.1 to 1 nM. Besides, the EC50 with AR / CBP ternary complex was under 1 nM.

For `CC(=O)N1CCc2c(c(N3CCCc4cc(-c5cnn(C)c5)c(C(F)F)cc43)nn2C2CCN(C3CCC4(CC3)CC(Oc3ncc(C(=O)NC5C(C)(C)C(Oc6ccc(C#N)c(Cl)c6)C5(C)C)cn3)C4)CC2)C1` (stereo not shown) [Compound 383, 2-[7-[4-[5-acetyl-3-[7-(difluoromethyl)-6-(1-methylpyrazol-4-yl)-3,4-dihydro-2H-quinolin-1-yl]-6,7-dihydro-4H-pyrazolo[4,3-c]pyridin-1-yl]-1-piperidyl]spiro[3.5]nonan-2-yl]oxy-N-[3-(3-chloro-4-cyano-phenoxy)-2,2,4,4-tetramethyl-cyclobutyl]pyrimidine-5-carboxamide], the IC50 in the assay on VCaP cells was in the range of 0.1 to 1 nM. Besides, the EC50 in the assay with AR / CBP ternary complex is under 1 nM.

Turning to `CC(=O)N1CCc2c(c(N3CCCc4cc(-c5cnn(C)c5)c(C(F)F)cc43)nn2C2CCN(C3CC(Oc4ncc(C(=O)NC5C(C)(C)C(Oc6ccc(C#N)c(Cl)c6)C5(C)C)cn4)C3)CC2)C1` (stereo not shown) [Compound 376, 2-[3-[4-[5-acetyl-3-[7-(difluoromethyl)-6-(1-methylpyrazol-4-yl)-3,4-dihydro-2H-quinolin-1-yl]-6,7-dihydro-4H-pyrazolo[4,3-c]pyridin-1-yl]-1-piperidyl]cyclobutoxy]-N-[3-(3-chloro-4-cyano-phenoxy)-2,2,4,4-tetramethyl-cyclobutyl]pyrimidine-5-carboxamide], in the assay with VCaP cells, the IC50 is 0.1 to 1 nM. For the same molecule, the EC50 in the assay with AR / CBP ternary complex is under 1 nM.

On to `CC(=O)N1CCc2c(c(N3CCCc4cc(-c5cnn(C)c5)c(C(F)F)cc43)nn2C2CCC(OC3CCN(c4ncc(C(=O)NC5C(C)(C)C(Oc6ccc(C#N)c(Cl)c6)C5(C)C)cn4)CC3)CC2)C1` (stereo not shown) [Compound 338, 2-[4-[4-[5-acetyl-3-[7-(difluoromethyl)-6-(1-methylpyrazol-4-yl)-3,4-dihydro-2H-quinolin-1-yl]-6,7-dihydro-4H-pyrazolo[4,3-c]pyridin-1-yl]cyclohexoxy]-1-piperidyl]-N-[3-(3-chloro-4-cyano-phenoxy)-2,2,4,4-tetramethyl-cyclobutyl]pyrimidine-5-carboxamide], for which the IC50 with VCaP cells was in the range of 0.1 to 1 nM. The EC50 with AR / CBP ternary complex is under 1 nM.

Consider `COc1cc(OC2C(C)(C)C(NC(=O)c3ccc(N4CCC(C5CCN(c6ccc(-c7cc8cccc(-c9nn(C%10CCOCC%10)c%10c9CN(C(C)=O)CC%10)c8cn7)cn6)CC5)CC4)cc3)C2(C)C)ccc1C#N` (stereo not shown) [Compound 267, 4-[4-[1-[5-[8-(5-acetyl-1-tetrahydropyran-4-yl-6,7-dihydro-4H-pyrazolo[4,3-c]pyridin-3-yl)-3-isoquinolyl]-2-pyridyl]-4-piperidyl]-1-piperidyl]-N-[3-(4-cyano-3-methoxy-phenoxy)-2,2,4,4-tetramethyl-cyclobutyl]benzamide], for which, in the assay with VCaP cells, the IC50 was in the range of 1 to 100 nM. In the assay with AR / CBP ternary complex, this molecule registered an EC50 of 1 to 10 nM.

`COc1cc(OC2C(C)(C)C(NC(=O)c3ccc(N4CCC(C5CN(c6ccc(-c7cc8cccc(-c9nn(C%10CCOCC%10)c%10c9CN(C(C)=O)CC%10)c8cn7)cn6)C5)CC4)cc3)C2(C)C)ccc1C#N` (stereo not shown) [Compound 268, 4-[4-[1-[5-[8-(5-acetyl-1-tetrahydropyran-4-yl-6,7-dihydro-4H-pyrazolo[4,3-c]pyridin-3-yl)-3-isoquinolyl]-2-pyridyl]azetidin-3-yl]-1-piperidyl]-N-[3-(4-cyano-3-methoxy-phenoxy)-2,2,4,4-tetramethyl-cyclobutyl]benzamide]: the IC50 in the assay with VCaP cells lay within 0.1 to 1 nM. Besides, the EC50 in the assay on AR / CBP ternary complex is under 1 nM.

The record behind these values is patent US20250129070A1, “BIFUNCTIONAL ANDROGEN RECEPTOR COMPOUNDS” (priority 2023, published 2025).
